# According to patent US10342806B2, “Hormone treatment for age-related hearing loss-presbycusis” (priority 2014, dated 2019):
# Assays:
# NKCC1 [1] = assay: NKCC1 protein expression in HT-29 cells, Western blot; assay type: cell-based, human
# Text: Cell culture and buffers. […] Arch Oral Biol 52: 411-416, 2007). These include, for example, studies of COMM domain-containing protein 1, which is involved in NKCC1 ubiquitination and transcriptional regulation of epithelial Na^+ channels (ENaC) located in the apical membrane of polarized epithelial cells, in particular, cells in the colon, kidney, and lung, by ALD (Cohen, et al., Induced differentiation in HT29, a human colon adenocarcinoma cell line. J Cell Sci 112: […], 1999, Epple, et al., Early aldosterone effect in distal colon by transcriptional regulation of ENaC subunits. Am J Physiol Gastrointest Liver Physiol 278: G718-G724, 2000, Smith, et al., COMMD1 interacts with the COOH terminus of NKCC1 in Calu-3 airway epithelial cells to modulate NKCC1 ubiquitination. Am J Physiol Cell Physiol 305: C133-C146, 2013). HT-29 cells were grown in DMEM media (Invitrogen, Carlsbad Calif.) with 10% FBS and antibiotics. Cells were grown in a humidified 95%/5% CO2 incubator at 37° C. Experiments were performed at 70-80% confluence.
# Western blot. Cell lysates were prepared in RIPA buffer (Pierce 89901; Thermo Scientific, Waltham, Mass.) with protease inhibitor cocktail (78430; Thermo Scientific). Cell samples were homogenized in buffer, followed by centrifugation at 2,000 rpm for 10 min at 4° C. Supernatants were subjected to Western blot analysis by loading 200 μg of protein per lane, after the protein concentrations were determined by Bradford protein assay. Proteins were fractionated by SDS-PAGE gel electrophoresis and transferred to a PVDF blotting membrane (Whatman, Piscataway, N.J.). The blot was incubated with primary antibodies against β-actin and Na—K-2C1 cotransport protein (Cell Signaling, Danvers Mass.); primary antibodies for p-SGK1, SGK1, pNedd4-2, and Nedd4-2 were utilized (concentration 1:1,000). The secondary antibody was horseradish peroxidaseconjugated goat anti-rabbit IgG (1:2,000; Cell Signaling).
# Statistical analysis. Images from films were imported into Adobe Photoshop (v 5.0), and further processed using Adobe Photoshop CS and ImageJ (National Institutes of Health) for the densitometry analysis. Data are reported as means±SD. Statistical analyses were performed with PRISM 4.0 (GraphPad Software, San Diego Calif.). Differences were analyzed with a one- or a two-way repeated measures ANOVA as appropriate or a two-way ANOVA followed by Bonferroni post hoc analyses that were corrected for multiple comparisons. Values of P <0.05 were considered significant.
# NKCC1 [2] = assay: Tl-uptake in single HT-29 cells (FluxOR) for NKCC1 activity; assay type: cell-based, human; details: 24 single HT-29 cells per condition
# Text: Tl-uptake in single cells for the detection of NKCC1 activity. To measure NKCC1 activity, we used a fluorescence assay to assess cotransporter activity in single isolated HT-29 cells (Delpire & Austin, Kinase regulation of Na^+—K^+-2Cl^− cotransport in primary afferent neurons. J Physiol 588: 3365-3373, 2010, Geng, et al., The Ste20 kinases SPAK and OSR1 regulate NKCC1 function in sensory neurons. J Biol Chem 284: 14020-14028, 2009, Weaver, et al., A thallium-sensitive, fluorescence-based assay for detecting and characterizing potassium channel modulators in mammalian cells. J Biomol Screen 9: 671-677, 2004). HT-29 cells were incubated at 37° C./5% CO2 for 24 h before use. […] For the detection of fluorescence, the preincubation solution was removed, and the cells were treated with a 340.5 mosM hypertonic stimulus solution containing the following (in mM): (2.8 TISO4, 140 NaCl, 2 KCl, 2 CaCl2, 0.8 MgSO4, 5 glucose, 20 HEPES, 27 sucrose, 1 ouabain, and 2.7 probenecid) in the presence or absence of 20 μM bumetanide. […] FluxOR fluorescence (excitation/emission: 488/525 nm) was recorded after 90 s upon addition of 2.8 mM […] to the external medium. […]
# Influence of ALD on NKCC1 transporter activity. […] To test this hypothesis, a more efficient and sensitive method, fluorescence Ion flux assays was adopted to measure NKCC1 transporter activity. […]
# [3] = Tail-cuff plethysmography of blood pressure; assay type: in vivo, mouse; details: 0.0016 mg/day pellet, measured at 2 and 4 months
# Procedure: (§1) FIG. 27(A) is graph showing the tail-cuff plethysmography of blood pressure for ALD treatments of 60 days and 120 days, compared to middle-age control mice. Diastolic blood pressures were measured for middle-aged (20-21 mon) CBA/CaJ mice and middle-age ALD treated (0.0016 mg/day continuous release through 120 days, one pellet for 60 days and subsequently a second pellet for 60 days) mice, each group, n=5. Pressures were taken at 60 and 120 days and compared to the middle-age control animals. Mean±SD for each group.
# as §1, with “27(B)” for “27(A)”, “is a” for “is”, “Systolic” for “Diastolic”
# During treatment, blood pressures were measured for the mice at 2 and 4 months after start of treatment.
smiles,measurement,setting,value
"C[C@]12CCC(=O)C=C1CC[C@@H]1[C@@H]2[C@@H](O)C[C@]2(C=O)[C@@H](C(=O)CO)CC[C@@H]12 [ALD, aldosterone]",induction of NKCC1 protein expression,"NKCC1 [1]; ALD 1 μM, MG-132 20 μM, CQ 50 μM, 9 h",induce NKCC1 protein expression similarly
same,decline of NKCC1 protein levels in response to cycloheximide,"NKCC1 [1]; ALD 1 μM, cycloheximide 20 μg/ml, 3, 6, or 9 h, relative to nontreated cells",much slower
same,threshold of NKCC1 induction (significant response),NKCC1 [1]; HT-29 cells,~10 pM
same,time by which NKCC1 up-regulation took effect,"NKCC1 [1]; HT-29 cells, ALD 1 μM",≤ 2 h
same,NKCC1 protein expression levels,"NKCC1 [1]; HT-29 cells, ALD 1 μM, stable over 12-24 h",upregulated
same,start of NKCC1 induction after treatment,"NKCC1 [1]; HT-29 cells, ALD (1 nM)",30 to 40 min
same,bumetanide-sensitive Tl+ uptake fluorescence,NKCC1 [2],marked increase in fluorescence
same,diastolic or systolic blood pressure,[3],neither aging nor the hormone treatment appeared to affect either diastolic or systolic blood pressure
